Reference: patent publication US10723766B2, “Derivatives of gamma-amanitin” (Heidelberg Pharma Research GmbH, priority 2015, dated 2020)

Columns and labels:
[1] = target: RNA-polymerase II (Homo sapiens, UniProt P24928); details: not covalently bound, very tight complex; read-out: KD of complex between amanitin and RNA-polymerase II; cited from earlier work
[2] = system: SKOV3 cells; assay: viability of SKOV3 cells treated with amatoxins (FIG. 3); assay type: cell-based
[3] = Zanotti et al., 1989; cited from earlier work

amanitin
Kd [1]: 3 nM

CC[C@H](C)[C@@H]1NC(=O)CNC(=O)C2Cc3c([nH]c4cc(O)ccc34)[S@+]([O-])CC(NC(=O)CNC1=O)C(=O)N[C@@H](CC(N)=O)C(=O)N1CC(O)C[C@H]1C(=O)N[C@@H]([C@@H](C)[C@H](C)O)C(=O)N2 (stereo partly drawn) [γ-amanitin (4), γ-amanitin]
EC50 [2]: 270 nM

S-deoxo-γ(R)-hydroxy-isoleucin-amaninamide
biological activity [3]: biologically inactive
